The values below come from ChEMBL document CHEMBL1134634, “Rapid enantiomeric quantification of an antiviral nucleoside agent (D,L-FMAU, 2'-fluoro-5-methyl-beta,D,L-arabinofurano-syluracil) by mass spectrometry” (J Med Chem, 2001).

For this experiment, the system named is Hepatitis B virus. Put plainly: Effective concentration against hepatitis B virus. Format: functional, organism-based.

In general, EC50 refers to the concentration at which the effect is half-maximal. Read a high EC50 as weaker potency. For the compound `Cc1cn([C@@H]2O[C@H](CO)[C@@H](O)[C@@H]2F)c(=O)[nH]c1=O` [5-METHYL-2'-FLUOROARAURACIL], the response was half-maximal at 130 nM (EC50).
